Measured values: patent US9150545B2, “Carboxamide compounds and their use as calpain inhibitors V” (ABBVIE DEUTSCHLAND GMBH & CO. KG, priority 2012, dated 2015)
Counter-ions that a name gives are not always drawn.

Target: T1, calpain-I isolated from human erythrocytes (Homo sapiens, UniProt P07384)
T1 construct: calpain-I—isolated from human erythrocytes (Calbiochem #208713); purchased Calbiochem 208713; host or cells: human erythrocytes (native tissue isolate)
T1 sequence (P07384 1-714): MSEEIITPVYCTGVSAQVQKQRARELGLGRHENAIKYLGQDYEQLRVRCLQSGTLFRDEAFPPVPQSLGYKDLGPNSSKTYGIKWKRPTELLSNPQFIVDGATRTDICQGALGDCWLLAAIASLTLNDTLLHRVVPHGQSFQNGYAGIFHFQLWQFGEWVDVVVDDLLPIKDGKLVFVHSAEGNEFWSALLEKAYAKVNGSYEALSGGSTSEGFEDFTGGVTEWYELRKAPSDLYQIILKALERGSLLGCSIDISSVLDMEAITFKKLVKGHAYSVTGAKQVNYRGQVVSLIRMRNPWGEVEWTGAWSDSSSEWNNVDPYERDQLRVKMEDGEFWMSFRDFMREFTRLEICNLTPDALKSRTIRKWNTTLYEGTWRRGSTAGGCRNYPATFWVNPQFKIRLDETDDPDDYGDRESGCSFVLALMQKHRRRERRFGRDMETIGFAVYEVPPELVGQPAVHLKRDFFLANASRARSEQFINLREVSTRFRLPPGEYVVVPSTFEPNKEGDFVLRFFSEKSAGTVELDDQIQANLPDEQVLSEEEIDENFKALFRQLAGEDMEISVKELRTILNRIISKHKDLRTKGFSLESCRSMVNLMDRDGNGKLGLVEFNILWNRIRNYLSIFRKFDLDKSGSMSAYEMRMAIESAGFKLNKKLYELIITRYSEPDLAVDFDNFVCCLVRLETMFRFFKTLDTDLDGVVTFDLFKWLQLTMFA
T1 sequence (P04632 1-268 partner): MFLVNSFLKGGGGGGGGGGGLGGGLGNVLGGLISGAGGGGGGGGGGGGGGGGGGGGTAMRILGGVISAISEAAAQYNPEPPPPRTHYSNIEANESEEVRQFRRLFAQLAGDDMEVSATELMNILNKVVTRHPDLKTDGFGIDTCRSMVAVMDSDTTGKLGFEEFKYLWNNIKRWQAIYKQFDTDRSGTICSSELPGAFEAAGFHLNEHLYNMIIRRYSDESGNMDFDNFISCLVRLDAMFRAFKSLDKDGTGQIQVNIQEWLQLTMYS
Test: Calpain I kinetic fluorescence enzyme inhibition assay
Format: biochemical
Settings: apparent Ki from IC50 by Cheng-Prussoff
Procedure: Testing for blockade of the corresponding enzymic activities was carried out by means of kinetic fluorescence assays (excitation 390 nm, emission 460 nm).
Apparent Ki values were calculated from the experimentally determined IC50 values by the Cheng-Prussoff relation assuming a reversible competitive enzyme inhibition.
20 nM calpain-I—isolated from human erythrocytes (Calbiochem #208713), 100 μM Suc-Leu-Tyr-AMC (Bachem #I-1355) as substrate in buffer with 62 mM imidazole, 0.3 mM CaCl2, 0.10% CHAPS, 0.05% BSA, 1 mM DTT at pH 7.3 and room temperature.

Ki	Structure (SMILES)
250 to 400 nM	NC(=O)C(=O)C(Cc1ccccc1)NC(=O)c1cccnc1-n1ccc(CN2CCC2)n1 (stereo not shown) [Example 11, N-(4-Amino-3,4-dioxo-1-phenylbutan-2-yl)-2-(3-(azetidin-1-ylmethyl)-1H-pyrazol-1-yl)nicotinamide trifluoroacetate]
< 250 nM	NC(=O)C(=O)C(Cc1ccccc1)NC(=O)c1cccnc1-n1ccc(CN2CCC(C(F)(F)F)CC2)n1 (stereo not shown) [Example 12, N-(4-Amino-3,4-dioxo-1-phenylbutan-2-yl)-2-(3-((4-(trifluoromethyl)piperidin-1-yl)methyl)-1H-pyrazol-1-yl)nicotinamide trifluoroacetate]
< 250 nM	NC(=O)C(=O)C(Cc1ccccc1)NC(=O)c1cccnc1-n1ccc(CN2CC3COCC3C2)n1 (stereo not shown) [Example 14, N-(4-Amino-3,4-dioxo-1-phenylbutan-2-yl)-2-(3-((dihydro-1H-furo[3,4-c]pyrrol-5(3H,6H,6aH)-yl)methyl)-1H-pyrazol-1-yl)nicotinamide trifluoroacetate]
< 250 nM	NC(=O)C(=O)C(Cc1ccccc1)NC(=O)c1cccnc1-n1ccc(CN2CCc3ccccc32)n1 (stereo not shown) [Example 15, N-(4-Amino-3,4-dioxo-1-phenylbutan-2-yl)-2-(3-(indolin-1-ylmethyl)-1H-pyrazol-1-yl)nicotinamide]
250 to 400 nM	CCN(CC)Cc1ccn(-c2ncccc2C(=O)NC(Cc2ccccc2)C(=O)C(N)=O)n1 (stereo not shown) [Example 18, N-(4-Amino-3,4-dioxo-1-phenylbutan-2-yl)-2-(3-((diethylamino)methyl)-1H-pyrazol-1-yl)nicotinamide trifluoroacetate]
< 250 nM	NC(=O)C(=O)C(Cc1ccccc1)NC(=O)c1cccnc1-n1ccc(CN2CCc3ccccc3C2)n1 (stereo not shown) [Example 22, N-(4-Amino-3,4-dioxo-1-phenylbutan-2-yl)-2-(3-((3,4-dihydroisoquinolin-2(1H)-yl)methyl)-1H-pyrazol-1-yl)nicotinamide]
< 250 nM	CN(Cc1ccn(-c2ncccc2C(=O)NC(Cc2ccccc2)C(=O)C(N)=O)n1)CC1CCC(C(F)(F)F)CC1 (stereo not shown) [Example 25, N-(4-Amino-3,4-dioxo-1-phenylbutan-2-yl)-2-(3-((methyl((4-(trifluoromethyl)cyclohexyl)methyl)amino)methyl)-1H-pyrazol-1-yl)nicotinamide trifluoroacetate]
< 250 nM	NC(=O)C(=O)C(Cc1ccccc1)NC(=O)c1cccnc1-n1ccc(CN2CC3C[C@@H](c4ccc(F)cc4)C3C2)n1 (stereo partly drawn) [Example 27, N-(4-Amino-3,4-dioxo-1-phenylbutan-2-yl)-2-(3-(((6R)-6-(4-fluorophenyl)-3-azabicyclo[3.2.0]heptan-3-yl)methyl)-1H-pyrazol-1-yl)nicotinamide trifluoroacetate]

The remaining lines, values behind:

Structure (SMILES)	Ki
NC(=O)C(=O)C(Cc1ccccc1)NC(=O)c1cccnc1-n1ccc(CN2CC3CC(F)(F)CC3C2)n1 (stereo not shown) [Example 13, N-(4-amino-3,4-dioxo-1-phenyl-2-butanyl)-2-{3-[(5,5-difluorohexahydrocyclopenta[c]pyrrol-2(1H)-yl)methyl]-1H-pyrazol-1-yl}nicotinamide trifluoroacetate]	< 250 nM
CN(Cc1ccn(-c2ncccc2C(=O)NC(Cc2ccccc2)C(=O)C(N)=O)n1)c1ccccc1 (stereo not shown) [Example 16, N-(4-Amino-3,4-dioxo-1-phenylbutan-2-yl)-2-(3-((methyl(phenyl)amino)methyl)-1H-pyrazol-1-yl)nicotinamide]	< 250 nM
NC(=O)C(=O)C(Cc1ccccc1)NC(=O)c1cccnc1-n1ccc(CN2CCC3(CC2)COC3)n1 (stereo not shown) [Example 17, 2-(3-(2-Oxa-7-azaspiro[3.5]nonan-7-ylmethyl)-1H-pyrazol-1-yl)-N-(4-amino-3,4-dioxo-1-phenylbutan-2-yl)nicotinamide trifluoroacetate]	< 250 nM
NC(=O)C(=O)C(Cc1ccccc1)NC(=O)c1cccnc1-n1ccc(CN2Cc3ccccc3C2)n1 (stereo not shown) [Example 19, N-(4-Amino-3,4-dioxo-1-phenylbutan-2-yl)-2-(3-(isoindolin-2-ylmethyl)-1H-pyrazol-1-yl)nicotinamide]	< 250 nM
CN(Cc1ccn(-c2ncccc2C(=O)NC(Cc2ccccc2)C(=O)C(N)=O)n1)C1CCCCC1 (stereo not shown) [Example 20, N-(4-Amino-3,4-dioxo-1-phenylbutan-2-yl)-2-(3-((cyclohexyl(methyl)amino)methyl)-1H-pyrazol-1-yl)nicotinamide trifluoroacetate]	< 250 nM
CN(Cc1ccccc1)Cc1ccn(-c2ncccc2C(=O)NC(Cc2ccccc2)C(=O)C(N)=O)n1 (stereo not shown) [Example 21, N-(4-Amino-3,4-dioxo-1-phenylbutan-2-yl)-2-(3-((benzyl(methyl)amino)methyl)-1H-pyrazol-1-yl)nicotinamide trifluoroacetate]	< 250 nM
CC(C)(C)C1CCN(Cc2ccn(-c3ncccc3C(=O)NC(Cc3ccccc3)C(=O)C(N)=O)n2)CC1 (stereo not shown) [Example 23, N-(4-Amino-3,4-dioxo-1-phenylbutan-2-yl)-2-(3-((4-tert-butylpiperidin-1-yl)methyl)-1H-pyrazol-1-yl)nicotinamide]	< 250 nM
CC1CCN(Cc2ccn(-c3ncccc3C(=O)NC(Cc3ccccc3)C(=O)C(N)=O)n2)CC1 (stereo not shown) [Example 24, N-(4-Amino-3,4-dioxo-1-phenylbutan-2-yl)-2-(3-((4-methylpiperidin-1-yl)methyl)-1H-pyrazol-1-yl)nicotinamide trifluoroacetate]	< 250 nM
CN(Cc1ccn(-c2ncccc2C(=O)NC(Cc2ccccc2)C(=O)C(N)=O)n1)C1CC1 (stereo not shown) [Example 26, N-(4-Amino-3,4-dioxo-1-phenylbutan-2-yl)-2-(3-((cyclopropyl(methyl)amino)methyl)-1H-pyrazol-1-yl)nicotinamide trifluoroacetate]	< 250 nM
NC(=O)C(=O)C(Cc1ccccc1)NC(=O)c1cccnc1-n1ccc(CNc2ccccc2)n1 (stereo not shown) [Example 28, N-(4-Amino-3,4-dioxo-1-phenylbutan-2-yl)-2-(3-((phenylamino)methyl)-1H-pyrazol-1-yl)nicotinamide]	< 250 nM
NC(=O)C(=O)C(Cc1ccccc1)NC(=O)c1cccnc1-n1ccc(CN2CCC(c3ccccc3)C2)n1 (stereo not shown) [Example 29, N-(4-Amino-3,4-dioxo-1-phenylbutan-2-yl)-2-(3-((3-phenylpyrrolidin-1-yl)methyl)-1H-pyrazol-1-yl)nicotinamide]	< 250 nM
NC(=O)C(=O)C(Cc1ccccc1)NC(=O)c1cccnc1-n1ccc(CN2Cc3ccc(C(F)(F)F)cc3C2)n1 (stereo not shown) [Example 30, N-(4-Amino-3,4-dioxo-1-phenylbutan-2-yl)-2-(3-((5-(trifluoromethyl)isoindolin-2-yl)methyl)-1H-pyrazol-1-yl)nicotinamide trifluoroacetate]	< 250 nM
NC(=O)C(=O)C(Cc1ccccc1)NC(=O)c1cccnc1-n1ccc(CN2Cc3ccc(F)cc3C2)n1 (stereo not shown) [Example 31, N-(4-Amino-3,4-dioxo-1-phenylbutan-2-yl)-2-(3-((5-fluoroisoindolin-2-yl)methyl)-1H-pyrazol-1-yl)nicotinamide trifluoroacetate]	< 250 nM
NC(=O)C(=O)C(Cc1ccccc1)NC(=O)c1cccnc1-n1ccc(CN2CCN(c3ccccc3)CC2)n1 (stereo not shown) [Example 32, N-(4-Amino-3,4-dioxo-1-phenylbutan-2-yl)-2-(3-((4-phenylpiperazin-1-yl)methyl)-1H-pyrazol-1-yl)nicotinamide trifluoroacetate]	< 250 nM
NC(=O)C(=O)C(Cc1ccccc1)NC(=O)c1cccnc1-n1ccc(CN2Cc3cccc(F)c3C2)n1 (stereo not shown) [Example 33, N-(4-Amino-3,4-dioxo-1-phenylbutan-2-yl)-2-(3-((4-fluoroisoindolin-2-yl)methyl)-1H-pyrazol-1-yl)nicotinamide trifluoroacetate]	< 250 nM
NC(=O)C(=O)C(Cc1ccccc1)NC(=O)c1cccnc1-n1ccc(CN2CCS(=O)(=O)CC2)n1 (stereo not shown) [Example 34, N-(4-Amino-3,4-dioxo-1-phenyl-2-butanyl)-2-{3-[(1,1-dioxido-4-thiomorpholinyl)methyl]-1H-pyrazol-1-yl}nicotinamide trifluoroacetate]	< 250 nM
CC(c1ccn(-c2ncccc2C(=O)NC(Cc2ccccc2)C(=O)C(N)=O)n1)N1Cc2ccccc2C1 (stereo not shown) [Example 35, N-(4-Amino-3,4-dioxo-1-phenylbutan-2-yl)-2-(3-(1-(isoindolin-2-yl)ethyl)-1H-pyrazol-1-yl)nicotinamide trifluoroacetate]	< 250 nM
